Data: patent publication US20240279710A1, “FLUORESCENT PROBES” (TOHOKU TECHNO ARCH CO., LTD., priority 2021, published 2024)

Key:
[1] = molecular target: T1, recombinant human cathepsin B (Homo sapiens, UniProt P07858); test: Fluorescence assay with cathepsin B; type: biochemical; details: 10 μM probe, 880 ng/mL cathepsin B, 50 mM TRIS pH 7.4, 37° C., excitation 475 nm, fluorescence 500-550 nm; FIG. 37
T1 construct: purchased R&D Systems 953-CY
Description: The fluorescence assay of Compound 19 with time was performed. Specifically, 880 ng/mL of recombinant human cathepsin B (953-CY; R&D Systems, MN, USA) was added to a 50 mM TRIS buffer (pH: 7.4, 2 mM EGTA, 2 mM DTE) containing 10 μM of the synthesized fluorescent probe to perform an enzyme reaction at 37° C. The same operations as those described above except that cathepsin B was not added were performed as a negative control. The results of the measurement of a change in fluorescence intensity with time by cathepsin B are shown in FIG. 37 (excitation wavelength: 475 nm, fluorescence wavelength: from 500 nm to 550 nm).

[2] = system: SH-SY5Y cells; test: Live cell imaging of calpain activity in SH-SY5Y cells; type: cell-based; details: 5 μM probe, 10 minutes incubation, FIG. 12
Description: Whether or not the improvement in enzymatic reactivity between the compound of the present invention and a calpain confirmed by the above-mentioned experiment remained the same even in a cell was verified. Calpain activity imaging in SH-SY5Y cells was performed on each of Compounds 16 and 19. Specifically, the SH-SY5Y cells (American Type Culture Collection, VA, USA) were cultured in a mixed medium of Dulbecco's modified eagle medium and Ham's F-12 medium (DMEM/F-12; Thermo Fisher Scientific, Inc.) (containing 10% fetal bovine serum (FBS; Thermo Fisher Scientific, Inc., MA, USA) and 100 U/mL penicillin-100 μg/mL streptomycin (PS; Thermo Fisher Scientific, Inc.)) under the conditions of 37° C. and 5% CO2-95% air. 6×10^4 to 8×10^4 Cells/well of the cells were seeded in a multiwell plate (μ-Plate 96 Well; ibidi, Grafelfing, Germany) coated with poly-D-lysine (Thermo Fisher Scientific, Inc.) and laminin (BD Biosciences, CA, USA), and were preincubated in a culture solution. Immediately after the removal of the culture solution in the wells, 200 μL of an assay solution (a culture solution containing a 5 μM probe) was added thereto, and the cells were incubated under the conditions of 37° C. and 5% CO2-95% air. 10 Minutes after that, a bright field image and a fluorescence image were taken with a confocal microscope (LSM 710, Carl Zeiss AG, Oberkochen, Germany).
Calpain activity imaging in SH-SY5Y cells was performed on each of Compounds 20 to 23, Compound 38, and Compound 56 in the same manner as in Example 9. In the case of each of Compounds 20 to 23 and Compound 38, a bright field image and a fluorescence image were taken after 30 minutes of incubation of the cells, and in the case of Compound 56, such images were taken after 20 minutes of incubation thereof.

Structure (SMILES): COCC(=O)N[C@@H](CC(C)C)C(=O)N[C@@H](CCSC)C(=O)Nc1ccc2c(c1)Oc1cc(N)ccc1C21OCc2ccccc21 (stereo partly drawn) [Compound 19]
- change in fluorescence intensity with time by cathepsin B [1]: functioned as a fluorescent probe for cathepsin B
- calpain activity imaging in SH-SY5Y cells ([2]; confocal microscope): enabled the observation of calpain activity in the SH-SY5Y cells
- clarity of live cell imaging compared to Compound 16 [2]: Clear imaging
